Data published in paper PMC5908784, “Extracellular loops 2 and 3 of the calcitonin receptor selectively modify agonist binding and efficacy” (Biochemical Pharmacology, 2018).
Where a chain is given by its changes, count along the chain named. Where a SMILES comes first, the peptide text is derived from it. Bridges are numbered along the chain shown (N, C = ends).

Assays:
Test in all cases: IP1 accumulation
Assay type in all cases: cell-based
Details in all cases: mean ± S.E.M.; for Emax: IP1 maximal response, SEM
hCTR Y299A = biological target: T1, hCTR Y299A (Homo sapiens, UniProt P30988, Y299A)
T1 construct: c-Myc (N); expressed in transfected cells
T1 sequence (P30988 25-474 Y299A): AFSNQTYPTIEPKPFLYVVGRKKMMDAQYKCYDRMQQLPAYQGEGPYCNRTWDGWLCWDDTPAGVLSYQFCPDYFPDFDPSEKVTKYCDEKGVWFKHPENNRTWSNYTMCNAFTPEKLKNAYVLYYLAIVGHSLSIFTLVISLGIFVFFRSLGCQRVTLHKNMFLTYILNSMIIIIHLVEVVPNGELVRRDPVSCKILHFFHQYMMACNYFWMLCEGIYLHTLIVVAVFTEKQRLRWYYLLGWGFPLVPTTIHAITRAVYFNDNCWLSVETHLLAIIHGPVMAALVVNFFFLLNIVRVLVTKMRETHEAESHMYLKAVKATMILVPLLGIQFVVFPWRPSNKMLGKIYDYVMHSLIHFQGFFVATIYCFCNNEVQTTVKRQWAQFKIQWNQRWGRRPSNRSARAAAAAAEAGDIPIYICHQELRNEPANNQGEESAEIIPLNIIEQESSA
Procedure, shortened: (§1)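 Cells bearing the mutant calcitonin receptor were plated overnight, then stimulated with increasing ligand concentrations for 60 min in the presence of LiCl. Endogenous IP1 was read by HTRF after lysis.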

hCTR V357A = biological target: T2, hCTR V357A (Homo sapiens, UniProt P30988, V357A)
T2 construct: c-Myc (N); expressed in transfected cells
T2 sequence (P30988 25-474 V357A): T1 sequence (P30988 25-474 Y299A) with A275Y, V333A
Procedure, shortened: as §1

hCTR T280A = biological target: T3, hCTR T280A (Homo sapiens, UniProt P30988, T280A)
T3 construct: expressed in transfected cells
T3 sequence (P30988 25-474 T280A): T1 sequence (P30988 25-474 Y299A) with T256A, A275Y
Procedure, shortened: as §1

hCTR R281A = biological target: T4, hCTR R281A (Homo sapiens, UniProt P30988, R281A)
T4 construct: expressed in transfected cells
T4 sequence (P30988 25-474 R281A): T1 sequence (P30988 25-474 Y299A) with R257A, A275Y
Procedure, shortened: as §1

hCTR I371A = biological target: T5, hCTR I371A (Homo sapiens, UniProt P30988, I371A)
T5 construct: c-Myc (N); expressed in transfected cells
T5 sequence (P30988 25-474 I371A): T1 sequence (P30988 25-474 Y299A) with A275Y, I347A
Procedure, shortened: as §1

[1] = IP1, CV1-FlpIn cells, 60 min, LiCl

| EC50 (hCTR Y299A; [1]) | EC50 (hCTR V357A; [1]) | EC50 (hCTR T280A; [1]) | EC50 (hCTR R281A; [1]) | EC50 (hCTR I371A; [1]) | Compound | Emax (hCTR Y299A) | Emax (hCTR V357A) | Emax (hCTR T280A) | Emax (hCTR R281A) | Emax (hCTR I371A) |
| --- | --- | --- | --- | --- | --- | --- | --- | --- | --- | --- |
| – | – | – | – | – | CC[C@H](C)[C@H](NC(=O)[C@H](C)NC(=O)[C@@H](NC(=O)[C@H](CCC(N)=O)NC(=O)[C@@H]1CCCN1C(=O)[C@H](Cc1ccccc1)NC(=O)[C@@H](NC(=O)[C@H](Cc1c[nH]cn1)NC(=O)[C@H](Cc1ccccc1)NC(=O)[C@H](CCCCN)NC(=O)[C@H](CC(N)=O)NC(=O)[C@H](Cc1ccccc1)NC(=O)[C@H](CC(=O)O)NC(=O)[C@H](CCC(N)=O)NC(=O)[C@@H](NC(=O)[C@H](Cc1ccc(O)cc1)NC(=O)[C@@H](NC(=O)CNC(=O)[C@H](CC(C)C)NC(=O)[C@H](CCSC)NC(=O)[C@@H]1CSSC[C@H](N)C(=O)NCC(=O)N[C@@H](CC(N)=O)C(=O)N[C@@H](CC(C)C)C(=O)N[C@@H](CO)C(=O)N[C@@H]([C@@H](C)O)C(=O)N1)[C@@H](C)O)[C@@H](C)O)[C@@H](C)O)[C@@H](C)O)C(=O)NCC(=O)N[C@H](C(=O)NCC(=O)N[C@@H](C)C(=O)N1CCC[C@H]1C(N)=O)C(C)C [hCT] | 34 ± 5% | 50 ± 4% | 79 ± 6% | 30 ± 4% | 42 ± 3% |
| 0.417 nM | 15.5 nM | 2.45 nM | 2.24 nM | 4.17 nM | CSCC[C@H](NC(=O)CNC(=O)[C@H](CO)NC(=O)[C@H](Cc1ccccc1)NC(=O)[C@H](CCCNC(=N)N)NC(=O)[C@H](Cc1c[nH]cn1)NC(=O)[C@H](Cc1ccccc1)NC(=O)[C@H](CC(N)=O)NC(=O)[C@H](CC(N)=O)NC(=O)[C@H](CC(C)C)NC(=O)[C@H](CC(N)=O)NC(=O)[C@H](CCCNC(=N)N)NC(=O)[C@H](Cc1c[nH]c2ccccc12)NC(=O)[C@H](Cc1ccc(O)cc1)NC(=O)[C@H](C)NC(=O)[C@H](CO)NC(=O)[C@H](CC(C)C)NC(=O)[C@@H](NC(=O)[C@@H]1CSSC[C@H](N)C(=O)N[C@@H](CO)C(=O)N[C@@H](CC(N)=O)C(=O)N[C@@H](CC(C)C)C(=O)N[C@@H](CO)C(=O)N[C@@H]([C@@H](C)O)C(=O)N1)C(C)C)C(=O)NCC(=O)N[C@@H](Cc1ccccc1)C(=O)NCC(=O)N1CCC[C@H]1C(=O)N[C@@H](CCC(=O)O)C(=O)N[C@H](C(=O)N1CCC[C@H]1C(N)=O)[C@@H](C)O [pCT] (H-CSNLSTCVLSAYWRNLNNFHRFSGMGFGPETP-NH2; disulfide 1-7) | 52 ± 3% | 48 ± 4% | 100 ± 6% | 52 ± 4% | 61 ± 6% |
| – | – | – | – | – | CC(C)C[C@H](NC(=O)[C@H](CCCCN)NC(=O)CNC(=O)[C@H](CC(C)C)NC(=O)[C@@H](NC(=O)[C@@H]1CSSC[C@H](N)C(=O)N[C@@H](CO)C(=O)N[C@@H](CC(N)=O)C(=O)N[C@@H](CC(C)C)C(=O)N[C@@H](CO)C(=O)N[C@@H]([C@@H](C)O)C(=O)N1)C(C)C)C(=O)N[C@@H](CO)C(=O)N[C@@H](CCC(N)=O)C(=O)N[C@@H](CCC(=O)O)C(=O)N[C@@H](CC(C)C)C(=O)N[C@@H](Cc1c[nH]cn1)C(=O)N[C@@H](CCCCN)C(=O)N[C@@H](CC(C)C)C(=O)N[C@@H](CCC(N)=O)C(=O)N[C@H](C(=O)N[C@@H](Cc1ccc(O)cc1)C(=O)N1CCC[C@H]1C(=O)N[C@@H](CCCNC(=N)N)C(=O)N[C@H](C(=O)N[C@@H](CC(N)=O)C(=O)N[C@H](C(=O)NCC(=O)N[C@@H](CO)C(=O)NCC(=O)N[C@H](C(=O)N1CCC[C@H]1C(N)=O)[C@@H](C)O)[C@@H](C)O)[C@@H](C)O)[C@@H](C)O [sCT] | 54 ± 5% | 39 ± 3% | 119 ± 5% | 91 ± 6% | 31 ± 14% |
